# US5856359A, “Thyroxine/cyclodextrin complexes and pharmaceutical compositions containing the same” (Hexal AG, priority 1995, dated 1999)
# Where a name gives a salt, the structure may show the parent alone.
# Tests used:
# Assay type in all cases: physicochemical
# [1] = Aqueous solubility of L-thyroxine free acid in the presence of γ-cyclodextrin
# Description: This poor solubility can be affected positively by employing γ-cyclodextrin. The effect of γ-cyclodextrin as to the aqueous solubility of thyroxine acid is shown by the results in the table below:
# Aqueous solubility of thyroxine free acid in the
# presence of γ-cyclodextrin at 25° C. studied on two
# [2] = Aqueous solubility of L-thyroxine sodium salt in the presence of cyclodextrins
# Text: Interaction between L-thyroxine sodium and cyclodextrins in presence of water.
# One evidence of the interaction between L-thyroxine and cyclodextrins is that the cyclodextrins increase the aqueous solubility of the thyroxine as shown in Table 1.
# Solubility of L-thyroxine sodium salt in the presence of CDs (mg/ml)
# [3] = Physical stability of aqueous gels and solutions on storage
# Description: 150 mg of a water swellable polymer (i.e. Klucel; Hercules Corp. USA) was added.
# The aqueous gel containing γ-cyclodextrin solubilized thyroxine was prepared by mixing at room temperature 150 mg of Pionier NP37 (polyacrylicacid) with 10 ml of 10% aqueous γ-cyclodextrin solution containing 300 mg solubilized L-thyroxine-Na.
# 10 ml of the aqueous Pionier NP37-thyroxine/γ-cyclodextrin formulation was stored in sealed polyethylene bags as well as in capped glass vials under normal laboratory conditions (22° C. exposed to day light) for two weeks and the turbidity of the samples was investigated.
molecule,measurement,setting,value
"N[C@@H](Cc1cc(I)c(Oc2cc(I)c(O)c(I)c2)c(I)c1)C(=O)O [L-thyroxine free acid, 0-(4-hydroxy-3,5-diiodophenyl)-3,5-diiodotyrosine]",enhancement of aqueous solubility of the acid form of thyroxine,[1]; cyclodextrin 20% by weight,enhanced by about ten-fold
same,solubility,"[1]; water with γ-cyclodextrin, γ-cyclodextrin 5 g/100 ml, 25° C., 1-st run, read-out: solubility of thyroxine free acid",0.4 mg/mL
same,solubility,"[1]; water with γ-cyclodextrin, γ-cyclodextrin 5 g/100 ml, 25° C., 2-nd run, read-out: solubility of thyroxine free acid",0.379 mg/mL
same,solubility,"[1]; water with γ-cyclodextrin, γ-cyclodextrin 10 g/100 ml, 25° C., 1-st run, read-out: solubility of thyroxine free acid",0.646 mg/mL
same,solubility,"[1]; water with γ-cyclodextrin, γ-cyclodextrin 10 g/100 ml, 25° C., 2-nd run, read-out: solubility of thyroxine free acid",0.652 mg/mL
same,solubility,"[1]; water with γ-cyclodextrin, γ-cyclodextrin 12 g/100 ml, 25° C., 1-st run, read-out: solubility of thyroxine free acid",0.765 mg/mL
same,solubility,"[1]; water with γ-cyclodextrin, γ-cyclodextrin 12 g/100 ml, 25° C., 2-nd run, read-out: solubility of thyroxine free acid",0.8 mg/mL
same,solubility,"[1]; water with γ-cyclodextrin, γ-cyclodextrin 15 g/100 ml, 25° C., 1-st run, read-out: solubility of thyroxine free acid",1.02 mg/mL
same,solubility,"[1]; water with γ-cyclodextrin, γ-cyclodextrin 15 g/100 ml, 25° C., 2-nd run, read-out: solubility of thyroxine free acid",1 mg/mL
same,solubility,"[1]; water with γ-cyclodextrin, γ-cyclodextrin 20 g/100 ml, 25° C., 1-st run, read-out: solubility of thyroxine free acid",1.39 mg/mL
same,solubility,"[1]; water with γ-cyclodextrin, γ-cyclodextrin 20 g/100 ml, 25° C., 2-nd run, read-out: solubility of thyroxine free acid",1.44 mg/mL
same,solubility,"[1]; water, without cyclodextrin, read-out: aqueous solubility of the free acid form of L-thyroxine",0.11 to 0.15 mg/mL
same,solubility,"[1]; water, γ-cyclodextrin 0 g/100 ml, 25° C., 1-st run, read-out: solubility of thyroxine free acid",0.11 mg/mL
same,solubility,"[1]; water, γ-cyclodextrin 0 g/100 ml, 25° C., 2-nd run, read-out: solubility of thyroxine free acid",0.15 mg/mL
"N[C@@H](Cc1cc(I)c(Oc2cc(I)c(O)c(I)c2)c(I)c1)C(=O)O [L-thyroxine sodium salt, Levothyroxine sodium]",solubility,"[2]; water with 2-hydroxypropylated-β-cyclodextrin, 2-hydroxypropylated-β-cyclodextrin 1.0%",1.44 mg/mL
same,solubility,"[2]; water with 2-hydroxypropylated-β-cyclodextrin, 2-hydroxypropylated-β-cyclodextrin 5.0%",2.9 mg/mL
same,solubility,"[2]; water with 2-hydroxypropylated-β-cyclodextrin, 2-hydroxypropylated-β-cyclodextrin 7.0%",2.74 mg/mL
same,solubility,"[2]; water with 2-hydroxypropylated-β-cyclodextrin, 2-hydroxypropylated-β-cyclodextrin 10.0%",2.77 mg/mL
same,solubility,"[2]; water with 2-hydroxypropylated-β-cyclodextrin, 2-hydroxypropylated-β-cyclodextrin 12.0%",3.05 mg/mL
same,solubility,"[2]; water with 2-hydroxypropylated-β-cyclodextrin, 2-hydroxypropylated-β-cyclodextrin 15.0%",3.14 mg/mL
same,solubility,"[2]; water with 2-hydroxypropylated-β-cyclodextrin, 2-hydroxypropylated-β-cyclodextrin 3.0%",3.1 mg/mL
same,solubility,"[2]; water with heptakis-2,6-di-o-methyl-β-cyclodextrin, heptakis-2,6-di-O-methyl-β-cyclodextrin 1.0%",3.16 mg/mL
same,solubility,"[2]; water with heptakis-2,6-di-o-methyl-β-cyclodextrin, heptakis-2,6-di-O-methyl-β-cyclodextrin 3.0%",5.5 mg/mL
same,solubility,"[2]; water with randomly-methylated-β-cyclodextrin, randomly-methylated-β-cyclodextrin 1.0%",3.7 mg/mL
same,solubility,"[2]; water with randomly-methylated-β-cyclodextrin, randomly-methylated-β-cyclodextrin 5.0%",8.36 mg/mL
same,solubility,"[2]; water with randomly-methylated-β-cyclodextrin, randomly-methylated-β-cyclodextrin 7.0%",9.33 mg/mL
same,solubility,"[2]; water with randomly-methylated-β-cyclodextrin, randomly-methylated-β-cyclodextrin 10.0%",10.3 mg/mL
same,solubility,"[2]; water with randomly-methylated-β-cyclodextrin, randomly-methylated-β-cyclodextrin 12.0%",13.3 mg/mL
same,solubility,"[2]; water with randomly-methylated-β-cyclodextrin, randomly-methylated-β-cyclodextrin 15.0%",16.8 mg/mL
same,solubility,"[2]; water with randomly-methylated-β-cyclodextrin, randomly-methylated-β-cyclodextrin 3.0%",6.15 mg/mL
same,solubility,"[2]; water with γ-cyclodextrin, γ-cyclodextrin 1.0%",5.48 mg/mL
same,solubility,"[2]; water with γ-cyclodextrin, γ-cyclodextrin 5.0%",16.9 mg/mL
same,solubility,"[2]; water with γ-cyclodextrin, γ-cyclodextrin 7.0%",26.6 mg/mL
same,solubility,"[2]; water with γ-cyclodextrin, γ-cyclodextrin 12.0%",35.1 mg/mL
same,solubility,"[2]; water with γ-cyclodextrin, γ-cyclodextrin 15.0%",44.2 mg/mL
same,solubility,"[2]; water with γ-cyclodextrin, γ-cyclodextrin 3.0%",12.1 mg/mL
same,solubility,"[2]; water, 1.0% maltosyl-β-cyclodextrin, Maltosyl-β-cyclodextrin 1.0%",2.29 mg/mL
same,solubility,"[2]; water, 2-hydroxypropylated-β-cyclodextrin column, 0% (no CDs)",2 mg/mL
same,solubility,"[2]; water, 3.0% maltosyl-β-cyclodextrin, Maltosyl-β-cyclodextrin 3.0%",2.48 mg/mL
same,solubility,"[2]; water, 5.0% dimethyl-β-cyclodextrin, heptakis-2,6-di-O-methyl-β-cyclodextrin 5.0%",7 mg/mL
same,solubility,"[2]; water, 5.0% maltosyl-β-cyclodextrin, Maltosyl-β-cyclodextrin 5.0%",2.32 mg/mL
same,solubility,"[2]; water, 7.0% dimethyl-β-cyclodextrin, heptakis-2,6-di-O-methyl-β-cyclodextrin 7.0%",7.62 mg/mL
same,solubility,"[2]; water, 7.0% maltosyl-β-cyclodextrin, Maltosyl-β-cyclodextrin 7.0%",2.94 mg/mL
same,solubility,"[2]; water, 10.0% maltosyl-β-cyclodextrin, Maltosyl-β-cyclodextrin 10.0%",2.73 mg/mL
same,solubility,"[2]; water, 12.0% dimethyl-β-cyclodextrin, heptakis-2,6-di-O-methyl-β-cyclodextrin 12.0%",12.1 mg/mL
same,solubility,"[2]; water, 12.0% maltosyl-β-cyclodextrin, Maltosyl-β-cyclodextrin 12.0%",2.8 mg/mL
same,solubility,"[2]; water, 15.0% dimethyl-β-cyclodextrin, heptakis-2,6-di-O-methyl-β-cyclodextrin 15.0%",14.2 mg/mL
same,solubility,"[2]; water, 15.0% maltosyl-β-cyclodextrin, Maltosyl-β-cyclodextrin 15.0%",2.68 mg/mL
same,solubility,"[2]; water, Maltosyl-β-cyclodextrin column, 0% (no CDs)",2 mg/mL
same,solubility,"[2]; water, heptakis-2,6-di-O-methyl-β-cyclodextrin column, 0% (no CDs)",2 mg/mL
same,solubility,"[2]; water, randomly-methylated-β-cyclodextrin column, 0% (no CDs)",2 mg/mL
same,solubility,"[2]; water, γ-cyclodextrin column, 0% (no CDs)",2 mg/mL
same,improvement of aqueous solubility of L-thyroxine sodium,"[2]; γ-cyclodextrin, among unsubstituted cyclodextrins",improve the aqueous solubility of L-thyroxine sodium most remarkably
OC[C@H]1O[C@@H]2O[C@H]3[C@H](O)[C@@H](O)[C@@H](O[C@H]4[C@H](O)[C@@H](O)[C@@H](O[C@H]5[C@H](O)[C@@H](O)[C@@H](O[C@H]6[C@H](O)[C@@H](O)[C@@H](O[C@H]7[C@H](O)[C@@H](O)[C@@H](O[C@H]8[C@H](O)[C@@H](O)[C@@H](O[C@H]9[C@H](O)[C@@H](O)[C@@H](O[C@H]1[C@H](O)[C@H]2O)O[C@@H]9CO)O[C@@H]8CO)O[C@@H]7CO)O[C@@H]6CO)O[C@@H]5CO)O[C@@H]4CO)O[C@@H]3CO [γ-cyclodextrin],precipitate formation,"[3]; aqueous γ-cyclodextrin solution without L-thyroxine-Na, after one week of storage",small amount of white precipitate formation
same,haze / precipitate formation on storage,"[3]; clear aqueous γ-cyclodextrin solutions without L-thyroxine-Na, or L-thyroxine-Na/γ-cyclodextrin hydrogels",hazy within three days
thyroxine,effect on the solubility of thyroxine,[2],practically no effect
same,improvement of aqueous solubility of thyroxine,[2],did not significantly improve the aqueous solubility of thyroxine
same,solubilizing potency of methylated-β-cyclodextrins for thyroxine versus γ-cyclodextrin,[2],"less potent solubilizers of thyroxine, than the chemically non-modified γ-cyclodextrin"
